Assay results taken from US5208220A, “Composition and treatment with biologically active peptides and antibiotics which inhibit DNA gyrase” (priority 1991, dated 1993).
Where no end group is shown, it is not given here.

Legend:
Type in all cases: cell-based
Conditions in all cases: compound alone
[1] = test system: isolates of strain MR-PSA (multiply resistant) Pseudomonas aeruginosa; assay: MIC in microtiter plates, Mueller-Hinton broth (Examples 2 and 3)
Method: For Examples 2 and 4, microorganisms employed in the assays were grown according to the procedure described in Stutman, et al., Antimicrobial Agents in Chemotherapy, Vol. 34, July 1990.
The final assays were then conducted in microtiter plates containing Mueller-Hinton broth 10^5 organisms were added to each well.
The minimal inhibitory concentrations, (MIC's), according to the procedure of Example 2, were tested against various isolates of strain MR-PSA, of Pseudomonas aeruginosa, except that Peptide 4 replaces Peptide 1.

[2] = test system: P.aeruginosa strain 107 (which is gentamicin - resistant); assay: MIC in trypticase soy broth, test wells (Example 1)
Method: (§1) Approximately 1-5×10^5 colony forming units (CFU's) of P.aeruginosa strain 27853 or of P.aeruginosa strain 107 (which is gentamicin - resistant) dispersed in 100 ul of trypticase soy broth (TSB) were added to each of a series of test wells. […] For purposes of this example, Peptide 1 is amide-terminated Magainin II, Peptide 2 is of the following structural formula: […]

[3] = test system: P.aeruginosa strain 27853; assay: as above
Method: as §1

GIGKFLHSAKKFGKAFVGEIMNS-NH2 [Peptide 1]
MIC ([1]; Table 2, MR-PSA isolate 1): 32 mg/L | MIC ([1]; Table 2, MR-PSA isolate 2): > 256 mg/L | MIC ([1]; Table 2, MR-PSA isolate 3): 32 mg/L | MIC ([1]; Table 2, MR-PSA isolate 4): 256 mg/L | MIC [2]: > 32 mg/L | MIC [3]: > 32 mg/L
